Experiments:
Format in all cases: cell-based
Parameters in all cases: unit not given here
[1] = test system: Proteus incon; test: in vitro antibacterial activity, agar dilution (Proteus incon); conditions: strain PR33
Protocol: (§1) *minimum inhibitory concentrations were determined by the Agardilution

[2] = test system: Enterbacter Aerogenes; test: in vitro antibacterial activity, agar dilution (Enterobacter aerogenes)
Protocol: as §1

[3] = test system: E. coli; test: in vitro antibacterial activity, agar dilution (E. coli)
Protocol: as §1

[4] = test system: Salmonella; test: in vitro antibacterial activity, agar dilution (Salmonella)
Protocol: as §1

[5] = test system: Proteus rett; test: in vitro antibacterial activity, agar dilution (Proteus rett); conditions: strain C24
Protocol: as §1

[6] = test system: Serratia; test: in vitro antibacterial activity, agar dilution (Serratia)
Protocol: as §1

[7] = test system: Enterbacter Cloacea; test: in vitro antibacterial activity, agar dilution (Enterobacter cloacae)
Protocol: as §1

[8] = test system: Acin; test: in vitro antibacterial activity, agar dilution (Acin); conditions: strain AC12
Protocol: as §1

[9] = test system: Streptococcus pn; test: in vitro antibacterial activity, agar dilution (Streptococcus pn); conditions: strain PARK
Protocol: as §1

[10] = test system: Streptococcus D; test: in vitro antibacterial activity, agar dilution (Streptococcus D)
Protocol: as §1

[11] = test system: H. Influ.; test: in vitro antibacterial activity, agar dilution (H. influ.)
Protocol: as §1

[12] = test system: Klebsiella; test: in vitro antibacterial activity, agar dilution (Klebsiella)
Protocol: as §1

[13] = test system: Streptococcus A; test: in vitro antibacterial activity, agar dilution (Streptococcus A); conditions: strain C203
Protocol: as §1

[14] = test system: Staphylococcus Epi; test: in vitro antibacterial activity, agar dilution (Staphylococcus epi)
Protocol: as §1

[15] = test system: Pseudomonas; test: in vitro antibacterial activity, agar dilution (Pseudomonas)
Protocol: as §1

[16] = test system: Shig. sonn; test: in vitro antibacterial activity, agar dilution (Shig. sonn); conditions: strain N9
Protocol: as §1

[17] = test system: Proteus morg; test: in vitro antibacterial activity, agar dilution (Proteus morg); conditions: strain PR15
Protocol: as §1

[18] = test system: Staphylococcus Aureus; test: in vitro antibacterial activity, agar dilution (Staphylococcus aureus)
Protocol: as §1

[19] = test system: Citro; test: in vitro antibacterial activity, agar dilution (Citro); conditions: strain CF17
Protocol: as §1

CO/N=C(\C(=O)N[C@@H]1C(=O)N2C(C(=O)O)=C(c3csc(C(c4ccccc4)c4ccccn4)n3)CC[C@H]12)c1csc(N)n1 (stereo partly drawn) [Example 38, 7β-[(2-aminothiazol-4-yl)-Z-methoximinoacetylamino]-1-carba-(1-dethia)-3-[2-(phenyl)(2-pyridyl)methyl)thiazol-4-yl-3-cephem-4-carboxylic acid]
minimum inhibitory concentration [1]: 4
minimum inhibitory concentration ([2]; strain C32): 8
minimum inhibitory concentration ([2]; strain EB17): 8
minimum inhibitory concentration ([3]; strain EC14): 4
minimum inhibitory concentration ([3]; strain N10): 8
minimum inhibitory concentration ([3]; strain TEM): 4
minimum inhibitory concentration ([4]; strain 1335): 8
minimum inhibitory concentration ([4]; strain X514): 4
minimum inhibitory concentration [5]: 4
minimum inhibitory concentration ([6]; strain SE3): 64
minimum inhibitory concentration ([6]; strain X99): 8
minimum inhibitory concentration ([7]; strain 265A): > 128
minimum inhibitory concentration ([7]; strain EB5): 8
minimum inhibitory concentration [8]: 64
minimum inhibitory concentration [9]: .015
minimum inhibitory concentration ([10]; strain 2041): 8
minimum inhibitory concentration ([10]; strain X66): > 128
minimum inhibitory concentration ([11]; res, strain 76): .125
minimum inhibitory concentration ([11]; sens, strain C.L.): 2
minimum inhibitory concentration ([12]; strain KAE): 128
minimum inhibitory concentration ([12]; strain X26): .125
minimum inhibitory concentration ([12]; strain X68): 4
minimum inhibitory concentration [13]: < .008
minimum inhibitory concentration ([14]; strain 222): 64
minimum inhibitory concentration ([14]; strain 270): 64
minimum inhibitory concentration ([15]; strain PS18): > 128
minimum inhibitory concentration ([15]; strain PS72): > 128
minimum inhibitory concentration ([15]; strain X239): > 128
minimum inhibitory concentration ([15]; strain X528): > 128
minimum inhibitory concentration [16]: 8
minimum inhibitory concentration [17]: 32
minimum inhibitory concentration ([18]; strain S13E): > 128
minimum inhibitory concentration ([18]; strain V41): 32
minimum inhibitory concentration ([18]; strain X1.1): 4
minimum inhibitory concentration ([18]; strain X400): > 128
minimum inhibitory concentration [19]: 32

CO/N=C(\C(=O)N[C@@H]1C(=O)N2C(C(=O)O)=C(c3csc(-c4ccc(F)cc4)n3)CC[C@H]12)c1csc(N)n1 [Example 37, 7β-[(2-aminothiazol-4-yl)-Z-methoximinoacetylamino]-1-carba-(1-dethia)-3-[2-(4-fluorophenyl)thiazol-4-yl]-3-cephem-4-carboxylic acid]
minimum inhibitory concentration [1]: .125
minimum inhibitory concentration ([2]; strain C32): 2
minimum inhibitory concentration ([2]; strain EB17): 1
minimum inhibitory concentration ([3]; strain EC14): .5
minimum inhibitory concentration ([3]; strain N10): 2
minimum inhibitory concentration ([4]; strain 1335): 2
minimum inhibitory concentration ([4]; strain X514): .5
minimum inhibitory concentration [5]: .125
minimum inhibitory concentration ([6]; strain SE3): 8
minimum inhibitory concentration ([6]; strain X99): 4
minimum inhibitory concentration ([7]; strain 265A): > 128
minimum inhibitory concentration ([7]; strain EB5): 2
minimum inhibitory concentration [8]: 128
minimum inhibitory concentration [9]: < .008
minimum inhibitory concentration ([10]; strain 2041): 4
minimum inhibitory concentration ([10]; strain X66): > 128
minimum inhibitory concentration ([11]; res, strain 76): .015
minimum inhibitory concentration ([11]; sens, strain C.L.): .03
minimum inhibitory concentration ([12]; strain KAE): 2
minimum inhibitory concentration ([12]; strain X26): < .008
minimum inhibitory concentration ([12]; strain X68): .5
minimum inhibitory concentration [13]: < .008
minimum inhibitory concentration ([14]; strain 222): 2
minimum inhibitory concentration ([14]; strain 270): 32
minimum inhibitory concentration ([15]; strain PS18): > 128
minimum inhibitory concentration ([15]; strain PS72): > 128
minimum inhibitory concentration ([15]; strain X239): > 128
minimum inhibitory concentration ([15]; strain X528): > 128
minimum inhibitory concentration [16]: 1
minimum inhibitory concentration [17]: 2
minimum inhibitory concentration ([18]; strain S13E): > 128
minimum inhibitory concentration ([18]; strain V41): 2
minimum inhibitory concentration ([18]; strain X1.1): 1
minimum inhibitory concentration ([18]; strain X400): > 128
minimum inhibitory concentration [19]: 4

CO/N=C(\C(=O)N[C@@H]1C(=O)N2C(C(=O)O)=C(c3csc(N)n3)CC[C@H]12)c1csc(N)n1 [Example 39]
minimum inhibitory concentration [1]: .25
minimum inhibitory concentration ([2]; strain C32): 1
minimum inhibitory concentration ([2]; strain EB17): .5
minimum inhibitory concentration ([3]; strain EC14): .5
minimum inhibitory concentration ([3]; strain N10): 1
minimum inhibitory concentration ([3]; strain TEM): .5
minimum inhibitory concentration ([4]; strain 1335): 2
minimum inhibitory concentration ([4]; strain X514): 1
minimum inhibitory concentration [5]: .25
minimum inhibitory concentration ([6]; strain SE3): 8
minimum inhibitory concentration ([6]; strain X99): 1
minimum inhibitory concentration ([7]; strain 265A): > 128
minimum inhibitory concentration ([7]; strain EB5): 2
minimum inhibitory concentration [8]: 128
minimum inhibitory concentration [9]: .015
minimum inhibitory concentration ([10]; strain 2041): 8
minimum inhibitory concentration ([10]; strain X66): > 128
minimum inhibitory concentration ([11]; res, strain 76): .06
minimum inhibitory concentration ([11]; sens, strain C.L.): .06
minimum inhibitory concentration ([12]; strain KAE): 2
minimum inhibitory concentration ([12]; strain X26): .015
minimum inhibitory concentration ([12]; strain X68): .5
minimum inhibitory concentration [13]: < .008
minimum inhibitory concentration ([14]; strain 222): 32
minimum inhibitory concentration ([14]; strain 270): 16
minimum inhibitory concentration ([15]; strain PS18): > 128
minimum inhibitory concentration ([15]; strain PS72): > 128
minimum inhibitory concentration ([15]; strain X239): > 128
minimum inhibitory concentration ([15]; strain X528): > 128
minimum inhibitory concentration [16]: .25
minimum inhibitory concentration [17]: 4
minimum inhibitory concentration ([18]; strain S13E): > 128
minimum inhibitory concentration ([18]; strain V41): 8
minimum inhibitory concentration ([18]; strain X1.1): 4
minimum inhibitory concentration ([18]; strain X400): > 128
minimum inhibitory concentration [19]: 8

CO/N=C(\C(=O)N[C@@H]1C(=O)N2C(C(=O)O)=C(c3csc(-c4ccc([N+](=O)[O-])cc4)n3)CC[C@H]12)c1csc(N)n1 [Example 35, Sodium 7β-[(2-aminothiazol-4-yl)-Z-methoximinoacetylamino]-1-carba-(1-dethia)-3-[2-(4-nitrophenyl)thiazol-4-yl]-3-cephem-4-carboxylate]
minimum inhibitory concentration [1]: .25
minimum inhibitory concentration ([2]; strain C32): .5
minimum inhibitory concentration ([2]; strain EB17): 1
minimum inhibitory concentration ([3]; strain EC14): .5
minimum inhibitory concentration ([3]; strain N10): 1
minimum inhibitory concentration ([3]; strain TEM): .5
minimum inhibitory concentration ([4]; strain 1335): 4
minimum inhibitory concentration ([4]; strain X514): 1
minimum inhibitory concentration [5]: .25
minimum inhibitory concentration ([6]; strain SE3): 4
minimum inhibitory concentration ([6]; strain X99): 4
minimum inhibitory concentration ([7]; strain 265A): 16
minimum inhibitory concentration ([7]; strain EB5): 1
minimum inhibitory concentration [8]: 64
minimum inhibitory concentration [9]: < .008
minimum inhibitory concentration ([10]; strain 2041): 4
minimum inhibitory concentration ([10]; strain X66): > 128
minimum inhibitory concentration ([11]; res, strain 76): .015
minimum inhibitory concentration ([11]; sens, strain C.L.): .03
minimum inhibitory concentration ([12]; strain KAE): .5
minimum inhibitory concentration ([12]; strain X26): < .008
minimum inhibitory concentration ([12]; strain X68): 1
minimum inhibitory concentration [13]: < .008
minimum inhibitory concentration ([14]; strain 222): 2
minimum inhibitory concentration ([14]; strain 270): 4
minimum inhibitory concentration [16]: .5
minimum inhibitory concentration [17]: .5
minimum inhibitory concentration ([18]; strain S13E): 32
minimum inhibitory concentration ([18]; strain V41): 2
minimum inhibitory concentration ([18]; strain X1.1): .5
minimum inhibitory concentration ([18]; strain X400): > 128
minimum inhibitory concentration [19]: 2
